What all share (format): cell-based
One data set deals with erythropoietin. The data set can be described thus: In vitro erythropoietin induction (ELISA of culture supernatant). The note with it: Hep3B cell line, relative to vehicle control; for EPO fold induction: 16 hours. Background: In an ELISA, binding on a coated surface is turned into a signal by an enzyme label.
A further data set has as its system adrenomedullin mRNA. The data set can be described thus: In vitro induction of adrenomedullin (mRNA, real-time PCR). Particulars: Hep3B cell line, 200 uM, 6 hours, normalized to 18S rRNA, relative to vehicle control. The method, then: Hep3B cell line (ATCC HB8064) was employed. […] At the end of 6 hours, cells were lysed and total RNA was isolated. Expression of adrenomedullin mRNA along-with expression of 18S rRNA was monitored by real-time PCR. Adrenomedullin mRNA expression was normalized relative to the expression of 18S rRNA. The results were expressed as fold induction of adrenomedullin mRNA relative to vehicle treated control.
In general terms: Quantitative PCR measures a nucleic acid by following its amplification.

The next data set concerns VEGF. The data set can be described thus: In vitro induction of vascular endothelial growth factor (ELISA of culture supernatant). Particulars: Hep3B cell line, 200 uM, 16 hours, relative to vehicle control. The method, then:
Hep3B cell line (ATCC HB8064) was employed. […] Supernatant obtained was analyzed for VEGF by ELISA (R&D systems, USA).

Procedure for erythropoietin: Hep3B cell line (ATCC HB8064) was employed. Induction of erythropoietin was carried out for the indicated dose of compounds for 16 hours duration. At the end of 16 hours, cell culture medium was collected and centrifuged to remove any debris. Supernatant obtained was analyzed for erythropoietin by ELISA (R&D systems, USA). The results were expressed as fold induction as compared to vehicle control.

For the compound `CC(C)[C@H](NC(=O)c1c(O)nc2sc3c(n2c1=O)CCC(C)(C)C3)C(=O)O` (single isomer, unassigned) [Compound 43, 2-[(2-Hydroxy-7,7-dimethyl-4-oxo-5,6,7,8-tetrahydro-4H-9-thia-1,4a-diaza-fluorene-3-carbonyl)-amino]-3-methyl-butyric acid (L-isomer)], the EPO fold induction result with erythropoietin (200 uM) was “+ (<2 fold)”.

For the compound `C[C@@H](NC(=O)c1c(O)nc2sc3c(n2c1=O)CCC(C)(C)C3)C(=O)O` (single isomer, unassigned) [Compound 44, 2-[(2-Hydroxy-7,7-dimethyl-4-oxo-5,6,7,8-tetrahydro-4H-9-thia-1,4a-diaza-fluorene-3-carbonyl)-amino]-propionic acid (D-isomer)], in the data set with erythropoietin (200 uM), the EPO fold induction entry is “+ (<2 fold)”.

Consider `CC1(C)CCc2c(sc3nc(O)c(C(=O)N[C@H](C(=O)O)c4ccccc4)c(=O)n23)C1` (single isomer, unassigned) [Compound 55, [(2-Hydroxy-7,7-dimethyl-4-oxo-5,6,7,8-tetrahydro-4H-9-thia-1,4a-diaza-fluorene-3-carbonyl)-amino]-phenyl-acetic acid, L-isomer], for which the EPO fold induction result with erythropoietin (200 uM) is “+ (<2 fold)”.

With `O=C(O)CNC(=O)c1c(O)nc2sc3c(n2c1=O)CCC3` [Compound 11, [(2-Hydroxy-4-oxo-7,8-dihydro-4H,6H-cyclopenta[4,5]thiazolo[3,2-a]pyrimidine-3-carbonyl)-amino]-acetic acid], in the data set on erythropoietin (200 uM), the EPO fold induction result is “+++ (5-8 fold)”.

As for `O=C(O)CCNC(=O)c1c(O)nc2sc3c(n2c1=O)CCC3` [Compound 14, 3-[(2-Hydroxy-4-oxo-7,8-dihydro-4H,6H-cyclopenta[4,5]thiazolo[3,2-a]pyrimidine-3-carbonyl)-amino]-propionic acid], the EPO fold induction result with erythropoietin (200 uM) is reported as “++ (2-4 fold)”.

In the case of `COc1cc(OC)cc(C(=O)N2CCc3c(sc4nc(O)c(C(=O)NCC(=O)O)c(=O)n34)C2)c1` [Compound 41, {[7-(3,5-Dimethoxy-benzoyl)-2-hydroxy-4-oxo-5,6,7,8-tetrahydro-4H-9-thia-1,4a,7-triaza-fluorene-3-carbonyl]-amino}-acetic acid], in the data set on erythropoietin (Homo sapiens, Hep3B, 16 h, 200 uM, read-out: EPO fold induction), the fold induction at 200 µM lay within 2 to 4.

With `CC1(C)CCc2c(sc3nc(O)c(C(=O)NCC(=O)[O-])c(=O)n23)C1.CC1(C)CCc2c(sc3nc(O)c(C(=O)NCC(=O)[O-])c(=O)n23)C1.[Na+].[Na+]` [Compound 80, [(2-Hydroxy-7,7-dimethyl-4-oxo-5,6,7,8-tetrahydro-4H-9-thia-1,4a-diaza-fluorene-3-carbonyl)-amino]-acetic acid, Disodium salt], the EPO fold induction entry in the data set on erythropoietin (200 uM) is reported as “++++ (9-16 fold)”.

Consider `O=C([O-])CNC(=O)c1c(O)nc2sc3c(n2c1=O)CCCCC3.O=C([O-])CNC(=O)c1c(O)nc2sc3c(n2c1=O)CCCCC3.[Na+].[Na+]` [Compound 82, [(2-Hydroxy-4-oxo-6,7,8,9-tetrahydro-4H,5H-10-thia-1,4a-diaza-benzo[a]azulene-3-carbonyl)-amino]-acetic acid, Disodium salt], for which the EPO fold induction result in the data set on erythropoietin (50 uM) is listed as “++++ (9-16 fold)”. The “Adrenomedullin mRNA (fold induction)” value with adrenomedullin mRNA is “+++ (5-8 fold)”. The “VEGF (Fold induction)” value in the data set on VEGF is given as “++ (2-4 fold induction of VEGF)”.

(Values after patent US8822484B2, “Fused thiazolo and oxazolo pyrimidinones” (Torrent Pharmaceuticals Limited, priority 2009, dated 2014).)
